# Experimental data from patent US8435978B2, “Substituted sulfonamide compounds” (Gruenenthal GmbH, priority 2006, dated 2013).
# Counter-ions that a name gives are not always drawn.
# Legend:
# B1R receptor of the rat = target: T1, B1R receptor of the rat (Rattus norvegicus, UniProt P97583); assay: Functional study on the bradykinin receptor 1 (B1R), FLIPR Ca2+ assay, rB1R cells; assay type: cell-based; settings: agonist Des-Arg9-bradykinin 100 nM, % inhibition compared with the maximum achievable inhibition; for inhibition at 10 µM: CHO-K1, test substance 10 μM, read-out: B1R Antagonism, rat [10 μM] % Inhibition; for B1R Antagonism, rat [10 μM] % Inhibition: test substance 10 μM, rB1R CHO K1 cells
# T1 construct: host or cells: CHO K1 cells (Chinese hamster ovary), stably transfected
# T1 sequence (P97583 1-337): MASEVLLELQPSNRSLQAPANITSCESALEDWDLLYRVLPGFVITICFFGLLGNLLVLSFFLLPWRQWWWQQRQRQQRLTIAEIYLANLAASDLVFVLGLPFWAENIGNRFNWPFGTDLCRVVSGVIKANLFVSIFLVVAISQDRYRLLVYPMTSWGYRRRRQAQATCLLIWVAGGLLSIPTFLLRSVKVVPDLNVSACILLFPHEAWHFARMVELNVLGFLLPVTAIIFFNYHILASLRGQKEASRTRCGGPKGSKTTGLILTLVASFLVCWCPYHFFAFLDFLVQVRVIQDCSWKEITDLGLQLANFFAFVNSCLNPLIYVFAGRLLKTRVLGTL
# In short: (§1)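 CHO K1 cells stably expressing human or rat B1R were loaded with Fluo-4 and read on a FLIPR (ex 488/em 540 nm, peak fluorescence). Test compounds at 10 μM were added first, then after 10 min agonist: Lys-Des-Arg9-bradykinin 0.5 nM for hB1R, Des-Arg9-bradykinin 100 nM for rB1R; % inhibition versus maximum inhibition.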
# human B1R receptor = target: T2, human B1R receptor (Homo sapiens, UniProt P46663); assay: Functional study on the bradykinin receptor 1 (B1R), FLIPR Ca2+ assay, hB1R cells; assay type: cell-based; settings: agonist Lys-Des-Arg9-bradykinin 0.5 nM, % inhibition compared with the maximum achievable inhibition; for inhibition at 10 µM: CHO-K1, test substance 10 μM, read-out: B1R Antagonism, human [10 μM] % Inhibition; for B1R Antagonism, human [10 μM] % Inhibition: test substance 10 μM, hB1R CHO K1 cells
# T2 construct: host or cells: CHO K1 cells (Chinese hamster ovary), stably transfected
# T2 sequence (P46663 1-353): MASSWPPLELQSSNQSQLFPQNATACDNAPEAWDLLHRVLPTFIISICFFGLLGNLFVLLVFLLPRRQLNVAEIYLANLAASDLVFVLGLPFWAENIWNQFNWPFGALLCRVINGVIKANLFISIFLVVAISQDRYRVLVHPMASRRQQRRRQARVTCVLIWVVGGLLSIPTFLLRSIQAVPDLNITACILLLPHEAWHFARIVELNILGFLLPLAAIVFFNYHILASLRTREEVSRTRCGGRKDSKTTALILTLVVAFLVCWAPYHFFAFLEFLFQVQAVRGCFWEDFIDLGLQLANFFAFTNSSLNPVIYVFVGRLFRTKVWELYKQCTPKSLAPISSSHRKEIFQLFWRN
# In short: as §1
inhibition at 10 µM (B1R receptor of the rat),inhibition at 10 µM (human B1R receptor),"B1R Antagonism, rat [10 μM] % Inhibition (B1R receptor of the rat)","B1R Antagonism, human [10 μM] % Inhibition (human B1R receptor)",Compound
101%,93.1%,–,–,"CC(C)N(Cc1ccc(N(C)C)cc1)C(=O)COCC1CCCCN1S(=O)(=O)c1c(Cl)cccc1Cl (stereo not drawn) [Example 530, 2-((1-(2,6-dichlorophenylsulfonyl)piperidin-2-yl)methoxy)-N-(4-(dimethylamino)benzyl)-N-isopropylacetamide]"
101%,106%,–,–,"O=C(COCC1CCCN1S(=O)(=O)c1c(Cl)cc(Cl)cc1Cl)N1CCC(CCN2CCCCC2)CC1 (stereo not drawn) [Example 331, 1-(4-(2-(piperidin-1-yl)ethyl)piperidin-1-yl)-2-((1-(2,4,6-trichlorophenylsulfonyl)pyrrolidin-2-yl)methoxy)ethanone]"
–,–,102.52%,104.82%,"CN1CCC(N2CCN(C(=O)COCC3CCCCN3S(=O)(=O)c3c(Cl)cccc3Cl)CC2)CC1 (stereo not drawn) [Example 565, 2-((1-(2,6-dichlorophenylsulfonyl)piperidin-2-yl)methoxy)-1-(4-(1-methylpiperidin-4-yl)piperazin-1-yl)ethanone]"
107%,17.3%,–,–,"COc1cc(C)c(S(=O)(=O)N2CCCCC2COCC(=O)NCc2ccc(N(C)C)cc2)c(C)c1 (stereo not drawn) [Example 577, N-(4-(dimethylamino)benzyl)-2-((1-(4-methoxy-2,6-dimethylphenylsulfonyl)piperidin-2-yl)methoxy)acetamide]"
100%,103%,–,–,"O=C(COCC1CCCCN1S(=O)(=O)c1c(Cl)cccc1Cl)N1CCN(Cc2ccc(Br)cc2)CC1 (stereo not drawn) [Example 406, 1-(4-(4-bromobenzyl)piperazin-1-yl)-2-((1-(2,6-dichlorophenylsulfonyl)piperidin-2-yl)methoxy)ethanone]"

# The next lines start with the molecule.
Compound,inhibition at 10 µM (B1R receptor of the rat),inhibition at 10 µM (human B1R receptor),"B1R Antagonism, rat [10 μM] % Inhibition (B1R receptor of the rat)","B1R Antagonism, human [10 μM] % Inhibition (human B1R receptor)"
"Cc1cc(C)c(S(=O)(=O)N2Cc3ccccc3CC2COCC(=O)NCC2CCCN(Cc3ccccc3)C2)c(C)c1 (stereo not drawn) [Example 41, N-(1-benzyl-piperidin-3-ylmethyl)-2-[2-(2,4,6-trimethyl-phenylsulfonyl)-1,2,3,4-tetrahydro-isoquinolin-3-ylmethoxy]-acetamide]",16.4%,72.6%,–,–
"CN1CCN(C2CCN(C(=O)COCC3CCCCN3S(=O)(=O)c3cccc4ccccc34)CC2)CC1 (stereo not drawn) [Example 230, 1-(4-(4-methylpiperazin-1-yl)piperidin-1-yl)-2-((1-(naphthen-1-ylsulfonyl)piperidin-2-yl)methoxy)ethanone]",–,–,62.33%,95.42%
"Cc1cc(C)c(S(=O)(=O)N2CCCCC2COCC(=O)N2CCN(c3nc(Cc4ccccc4)cs3)CC2)c(C)c1 (stereo not drawn) [Example 234, 1-(4-(4-benzylthiazol-2-yl)piperazin-1-yl)-2-((1-(mesitylsulfonyl)piperidin-2-yl)methoxy)ethanone]",103%,52%,–,–
"O=C(COCC1CCCN1S(=O)(=O)c1c(Cl)cc(Cl)cc1Cl)N1CCC(N2CCOCC2)CC1 (stereo not drawn) [Example 297, 1-(4-morpholinopiperidin-1-yl)-2-((1-(2,4,6-trichlorophenylsulfonyl)pyrrolidin-2-yl)methoxy)ethanone]",103%,106%,–,–
"COc1cc(C)c(S(=O)(=O)N2CCCCC2COCC(=O)N2CCNCC2)c(C)c1 (stereo not drawn) [Example 102, 2-((1-(4-methoxy-2,6-dimethylphenylsulfonyl)piperidin-2-yl)methoxy)-1-(piperazin-1-yl)ethanone hydrochloride]",100%,104%,–,–
"COc1cc(C)c(S(=O)(=O)N2CCCC2COCC(=O)N2CCN(c3ccccn3)CC2)c(C)c1 (stereo not drawn) [Example 305, 2-((1-(4-methoxy-2,6-dimethylphenylsulfonyl)pyrrolidin-2-yl)methoxy)-1-(4-(pyridin-2-yl)piperazin-1-yl)ethanone]",95.5%,76.4%,–,–
"COc1cc(C)c(S(=O)(=O)N2CCCCC2COCC(=O)NCCCCCN(C)C)c(C)c1 (stereo not drawn) [Example 250, N-(5-(dimethylamino)pentyl)-2-((1-(4-methoxy-2,6-dimethylphenylsulfonyl)piperidin-2-yl)methoxy)acetamide]",90.5%,96.8%,–,–
